≈ marks a conversion by molar mass, not a printed value.
Legend:
[1] = Solubility of the compound; format: physicochemical
[2] = Apparent permeability of a compound in human Caco-2 cells; format: ADME, cell-based
[3] = target: T1, Protein kinase C alpha type (Homo sapiens, UniProt P17252); assay: Inhibition of PKC alpha (unknown origin) in presence of ATP at Km
[4] = target: T1, Protein kinase C alpha type; assay: Inhibition of PKC alpha (unknown origin) in presence of 1 mM ATP
[5] = target: T2, Protein kinase C theta type (Homo sapiens, UniProt Q04759); assay: Inhibition of PKC theta (unknown origin) in presence of 1 mM ATP
T2 sequence (Q04759 whole entry): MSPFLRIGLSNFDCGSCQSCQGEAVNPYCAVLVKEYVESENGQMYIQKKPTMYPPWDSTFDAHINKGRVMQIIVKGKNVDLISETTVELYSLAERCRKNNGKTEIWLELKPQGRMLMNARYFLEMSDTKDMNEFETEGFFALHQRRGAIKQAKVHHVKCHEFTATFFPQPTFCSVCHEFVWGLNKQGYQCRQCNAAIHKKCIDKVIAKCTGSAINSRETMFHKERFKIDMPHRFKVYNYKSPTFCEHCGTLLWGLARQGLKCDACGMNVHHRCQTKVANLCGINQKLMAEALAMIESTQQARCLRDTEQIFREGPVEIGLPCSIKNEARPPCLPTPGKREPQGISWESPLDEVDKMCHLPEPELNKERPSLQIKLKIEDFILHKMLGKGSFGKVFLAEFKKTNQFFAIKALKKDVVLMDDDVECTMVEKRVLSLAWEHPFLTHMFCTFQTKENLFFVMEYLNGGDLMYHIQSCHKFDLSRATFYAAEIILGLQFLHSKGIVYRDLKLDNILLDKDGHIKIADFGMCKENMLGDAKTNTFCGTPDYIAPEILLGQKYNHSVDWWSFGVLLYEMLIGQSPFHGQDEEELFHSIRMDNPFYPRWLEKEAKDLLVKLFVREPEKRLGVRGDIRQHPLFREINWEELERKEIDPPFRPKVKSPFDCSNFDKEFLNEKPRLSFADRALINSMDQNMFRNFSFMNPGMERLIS

[6] = target: T2, Protein kinase C theta type; assay: Inhibition of PKC theta in TCR-stimulated human PBMC assessed as inhibition of IL-2 release; format: cell-based
[7] = target: T2, Protein kinase C theta type; assay: Inhibition of PKC theta (unknown origin) in presence of ATP at Km
[8] = Metabolic stability in human hepatocytes assessed as intrinsic clearance measured per 10^6 cells; format: ADME, cell-based, Hepatocyte; conditions: read-out: CLH
[9] = target: Voltage-gated inwardly rectifying potassium channel KCNH2 (Homo sapiens, UniProt Q12809); assay: Inhibition of hERG; format: toxicity
Sequence of Voltage-gated inwardly rectifying potassium channel KCNH2 (Q12809 whole entry): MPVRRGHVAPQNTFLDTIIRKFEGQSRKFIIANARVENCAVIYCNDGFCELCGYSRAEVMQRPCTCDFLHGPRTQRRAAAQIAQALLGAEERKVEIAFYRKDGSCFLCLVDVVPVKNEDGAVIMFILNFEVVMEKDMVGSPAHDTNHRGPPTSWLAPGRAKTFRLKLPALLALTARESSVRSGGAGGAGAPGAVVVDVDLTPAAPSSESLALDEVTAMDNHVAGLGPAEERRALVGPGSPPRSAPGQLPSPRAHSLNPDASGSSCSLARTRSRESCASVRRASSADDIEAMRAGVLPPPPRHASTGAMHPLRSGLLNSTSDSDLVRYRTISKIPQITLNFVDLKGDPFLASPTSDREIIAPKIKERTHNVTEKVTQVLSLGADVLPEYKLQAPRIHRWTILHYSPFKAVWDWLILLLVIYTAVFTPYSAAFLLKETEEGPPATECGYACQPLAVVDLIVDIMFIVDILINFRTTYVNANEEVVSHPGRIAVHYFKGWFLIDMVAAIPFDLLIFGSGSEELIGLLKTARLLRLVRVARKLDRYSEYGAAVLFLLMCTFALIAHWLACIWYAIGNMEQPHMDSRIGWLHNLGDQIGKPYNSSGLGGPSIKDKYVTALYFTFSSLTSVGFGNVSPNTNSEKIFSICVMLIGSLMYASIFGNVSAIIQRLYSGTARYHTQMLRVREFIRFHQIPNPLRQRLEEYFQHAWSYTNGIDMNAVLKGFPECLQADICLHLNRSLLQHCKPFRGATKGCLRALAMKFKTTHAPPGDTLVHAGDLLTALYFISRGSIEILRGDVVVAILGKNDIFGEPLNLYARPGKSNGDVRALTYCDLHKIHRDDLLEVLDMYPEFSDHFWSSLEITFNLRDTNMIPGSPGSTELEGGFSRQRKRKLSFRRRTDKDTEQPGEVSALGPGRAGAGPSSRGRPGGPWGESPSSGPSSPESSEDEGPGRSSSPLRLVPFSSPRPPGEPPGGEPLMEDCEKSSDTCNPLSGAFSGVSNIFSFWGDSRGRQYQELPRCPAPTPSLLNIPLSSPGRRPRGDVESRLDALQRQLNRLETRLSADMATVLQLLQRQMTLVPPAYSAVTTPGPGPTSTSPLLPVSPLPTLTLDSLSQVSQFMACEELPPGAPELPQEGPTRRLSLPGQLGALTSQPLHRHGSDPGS

[10] = Selectivity ratio of inhibition of MSK1 (unknown origin) to inhibition of PKC theta (unknown origin) at 1 mM ATP concentration
[11] = Selectivity ratio of inhibition of HGK (unknown origin) to inhibition of PKC theta (unknown origin) at 1 mM ATP concentration
[12] = Efflux ratio of apparent permeability across basolateral to apical side over apical to basolateral side in human Caco-2 cells; format: ADME, cell-based
[13] = Selectivity ratio of inhibition of GSK3beta (unknown origin) to inhibition of PKC theta (unknown origin) at 1 mM ATP concentration
[14] = Selectivity ratio of inhibition of PKCeta (unknown origin) to inhibition of PKC theta (unknown origin) at 1 mM ATP concentration
[15] = Selectivity ratio of inhibition of CLK1 (unknown origin) to inhibition of PKC theta (unknown origin) at 1 mM ATP concentration
[16] = Oral bioavailability in rat; format: ADME, organism-based; conditions: in vivo
[17] = Selectivity ratio of inhibition of PKACalpha (unknown origin) to inhibition of PKC theta (unknown origin) at 1 mM ATP concentration
[18] = Selectivity ratio of inhibition of PKCdelta (unknown origin) to inhibition of PKC theta (unknown origin) at 1 mM ATP concentration
[19] = Clearance in rat; format: ADME; conditions: in vivo
[20] = Selectivity ratio of inhibition of FLT3 (unknown origin) to inhibition of PKC theta (unknown origin) at 1 mM ATP concentration
[21] = Selectivity ratio of inhibition of PI3K-C2beta (unknown origin) to inhibition of PKC theta (unknown origin) at 1 mM ATP concentration
[22] = Selectivity ratio of inhibition of PKCbeta1 (unknown origin) to inhibition of PKC theta (unknown origin) at 1 mM ATP concentration
[23] = Volume of distribution at steady state in rat; format: ADME; conditions: in vivo, read-out: Vdss
[24] = Selectivity ratio of inhibition of RSK3 (unknown origin) to inhibition of PKC theta (unknown origin) at 1 mM ATP concentration
[25] = Selectivity ratio of inhibition of TRKA (unknown origin) to inhibition of PKC theta (unknown origin) at 1 mM ATP concentration
[26] = Selectivity ratio of inhibition of AURB (unknown origin) to inhibition of PKC theta (unknown origin) at 1 mM ATP concentration

Row | Structure (SMILES) | solubility [1] [µM] | Papp [2] [×10⁻⁶ cm/s] | IC50 [3] [nM] | IC50 [4] [nM] | IC50 [5] [nM] | IC50 [6] [nM] | IC50 [7] [nM] | hepatocyte CLint [8] [µL/min/1e6 cells] | efflux ratio [12] | also measured
1 | CN1CCCCOc2ccnc3[nH]c(=O)n(c23)-c2ccc(C(N)=O)c1n2 | 16 (≈ 5.67 µg/mL) | 2.2 | – | – | – | – | – | – | – | –
2 | CC1CCCOc2nc(c(-c3nnc[nH]3)cc2C(N)=O)-n2c(=O)[nH]c3nccc(c32)O1 (configuration not stated) | – | – | 1100 | – | – | 160 | 3.3 | – | – | –
3 | CC1(C)NC(=O)c2ccc3cc2N1CCCCOc1ccnc2[nH]c(=O)n-3c12 | 12 (≈ 4.55 µg/mL) | 0.7 | – | – | – | – | – | – | – | –
4 | CC1CCN(C)c2ccnc3cc(F)c(nc23)-n2c(=O)[nH]c3nccc(c32)O1 (configuration not stated) | – | – | 25 | 190 | < 0.5 | 1.9 | < 0.5 | 10 | – | IC50 [9]: 2400 nM
5 | CC1CCC(C)n2ccc(=O)c3ccc(nc32)-n2c(=O)[nH]c3nccc(c32)O1 (configuration not stated) | 123 (≈ 46.4 µg/mL) | 4 | 140 | 790 | 1.6 | 26 | < 0.5 | < 4 | 8 | Selectivity ratio [10]: 945; Selectivity ratio [11]: > 6250; Selectivity ratio [13]: 4540; Selectivity ratio [14]: 482; Selectivity ratio [15]: > 6250; bioavailability [16]: 20%; Selectivity ratio [17]: > 6250; Selectivity ratio [18]: 346; clearance [19]: 36 mL/min/kg; Selectivity ratio [20]: 1310; Selectivity ratio [21]: 3050; Selectivity ratio [22]: 262; Vd [23]: 2.7 L/kg; Selectivity ratio [24]: 4910; Selectivity ratio [25]: 2200; Selectivity ratio [26]: 2850
6 | CC1CCC(C)c2ccnc3ccc(nc23)-n2c(=O)[nH]c3nccc(c32)O1 (configuration not stated) | – | – | 65 | 840 | 3.9 | 28 | < 0.5 | 19 | – | –
7 | CN1CCCCOc2ccnc3[nH]c(=O)n(c23)-c2cc1ccc2Cl | 4 (≈ 1.38 µg/mL) | – | – | – | – | – | – | < 1 | – | –
8 | CC1CCn2ccc(=O)c3cc(F)c(nc32)-n2c(=O)[nH]c3nccc(c32)O1 (configuration not stated) | 274 (≈ 101 µg/mL) | 0.5 | 440 | 3700 | 5 | 27 | < 0.5 | < 4 | 53 | –
9 | CC1CCCOc2cccc(n2)-n2c(=O)[nH]c3nccc(c32)O1 (configuration not stated) | 32 (≈ 9.99 µg/mL) | 31 | 1900 | > 10000 | 61 | 236 | 5 | 6.1 | 0.6 | –
10 | CC1CCC(C)Oc2ccnc3[nH]c(=O)n(c23)-c2nc(c(C(N)=O)cc2F)O1 (configuration not stated) | 145 (≈ 56.2 µg/mL) | 8 | 49 | 620 | 0.9 | 12 | < 0.5 | < 4 | 7 | bioavailability [16]: 69%
11 | CC1CCN(C)c2ccnc3ccc(nc23)-n2c(=O)[nH]c3nccc(c32)O1 (configuration not stated) | – | 14 | 82 | 940 | 1 | 6.5 | < 0.5 | < 4 | 2 | IC50 [9]: < 400 nM
12 | CC1(C)NC(=O)c2ccc3cc2N1CCCOc1ccnc2[nH]c(=O)n-3c12 | 9 (≈ 3.29 µg/mL) | 0.3 | – | – | – | – | – | – | – | –
13 | O=c1[nH]c2nccc3c2n1-c1cccc(n1)OCCCCO3 | 3 (≈ 0.895 µg/mL) | 15 | > 10000 | – | – | – | 9.2 | 12 | 0.9 | –
14 | CC1CCN(C)c2c(F)cnc3cc(F)c(nc23)-n2c(=O)[nH]c3nccc(c32)O1 (configuration not stated) | – | 18 | 56 | 934 | 1.2 | 9.1 | < 0.5 | 4 | 1 | Selectivity ratio [10]: 576; Selectivity ratio [11]: 36; Selectivity ratio [13]: 187; Selectivity ratio [14]: 62; Selectivity ratio [15]: 858; bioavailability [16]: 58%; Selectivity ratio [17]: 754; Selectivity ratio [18]: 166; IC50 [9]: 13000 nM; Selectivity ratio [20]: 174; Selectivity ratio [21]: 332; Selectivity ratio [22]: 709; Selectivity ratio [24]: 649; Selectivity ratio [25]: 353; Selectivity ratio [26]: > 8330
15 | CC1CCCOc2nc(c(-c3cnc[nH]3)cc2C(N)=O)-n2c(=O)[nH]c3nccc(c32)O1 (configuration not stated) | – | – | 920 | 6700 | 15 | 89 | 1.4 | – | – | –
16 | CC1CCCOc2ccnc3[nH]c(=O)n(c23)-c2ccc3c(=O)ccn1c3n2 (configuration not stated) | 296 (≈ 108 µg/mL) | 3.1 | 68 | 679 | < 0.5 | 7.6 | < 0.5 | 17 | 12 | –

Now from value to compound, other results behind:

Row | solubility [1] [µM] | Papp [2] [×10⁻⁶ cm/s] | IC50 [3] [nM] | IC50 [4] [nM] | IC50 [5] [nM] | IC50 [6] [nM] | IC50 [7] [nM] | hepatocyte CLint [8] [µL/min/1e6 cells] | efflux ratio [12] | Structure (SMILES) | also measured
17 | – | – | 270 | 2200 | 1.2 | 15 | < 1 | 22 | – | CC1CCCOc2ccnc3[nH]c(=O)n(c23)-c2nc(c(C(N)=O)cc2-c2ncc[nH]2)O1 (configuration not stated) | –
18 | 180 (≈ 56.2 µg/mL) | 32 | 259 | 2200 | 3.6 | 28 | < 0.5 | 32 | 0.7 | CC1CCCOc2ccnc3[nH]c(=O)n(c23)-c2cccc(n2)O1 (configuration not stated) | –
19 | – | – | 8200 | – | – | – | 47 | – | – | CC1CCCOc2nc(c(-c3ccn[nH]3)cc2C(N)=O)-n2c(=O)[nH]c3nccc(c32)O1 (configuration not stated) | –
20 | 271 (≈ 107 µg/mL) | 2.1 | 49 | 550 | < 0.5 | 17 | < 0.5 | < 4 | 13 | CC1CCC(C)n2ccc(=O)c3cc(F)c(nc32)-n2c(=O)[nH]c3nccc(c32)O1 (configuration not stated) | bioavailability [16]: 40%; clearance [19]: 41 mL/min/kg; Vd [23]: 3.2 L/kg
21 | – | 26 | 980 | 7900 | 54 | 255 | 4.2 | < 4 | 1 | CC1CCOc2ccnc3ccc(nc23)-n2c(=O)[nH]c3nccc(c32)O1 (configuration not stated) | IC50 [9]: > 30000 nM
22 | – | – | – | – | 3.4 | 49 | 0.7 | – | – | CN1CCN(c2nc(C3=C(c4c[nH]c5ccccc45)C(=O)NC3=O)c3ccccc3n2)CC1 [SOTRASTAURIN] | –
23 | – | 31 | 59 | 550 | < 0.5 | 4.2 | < 0.5 | 36 | 0.8 | CC1CCCOc2ccnc3[nH]c(=O)n(c23)-c2ccc3nccc1c3n2 (configuration not stated) | IC50 [9]: 24000 nM
24 | 1.9 (≈ 0.696 µg/mL) | 1.3 | – | – | – | – | – | – | – | CC1(C)NC(=O)c2ccc3nc2N1CCCOc1ccnc2[nH]c(=O)n-3c12 | –
25 | 25 (≈ 9.51 µg/mL) | 0.9 | 57 | 487 | 0.1 | 6 | < 0.1 | – | 65 | CC1CCN2c3nc(ccc3C(=O)NC2(C)C)-n2c(=O)[nH]c3nccc(c32)O1 (configuration not stated) | Selectivity ratio [10]: 5160; Selectivity ratio [11]: 14500; Selectivity ratio [13]: 17900; Selectivity ratio [14]: 997; Selectivity ratio [15]: 1620; bioavailability [16]: 17%; Selectivity ratio [17]: 25000; Selectivity ratio [18]: 677; Selectivity ratio [20]: 2450; Selectivity ratio [21]: 4640; Selectivity ratio [22]: 911; Selectivity ratio [24]: 2260; Selectivity ratio [25]: 5180; Selectivity ratio [26]: 253
26 | 54 (≈ 22.3 µg/mL) | 7.4 | – | – | – | – | – | 11 | – | C[C@H](c1ccccc1)N1c2cc(-n3c(=O)[nH]c4ncccc43)ccc2C(=O)NC1(C)C | –
27 | 5.5 (≈ 1.88 µg/mL) | 0.2 | – | – | – | – | – | – | – | NC(=O)c1ccc2nc1OCCCCOc1ccnc3[nH]c(=O)n-2c13 | –
28 | 275 (≈ 99.9 µg/mL) | 1.3 | 880 | 6600 | 15 | 52 | 1.2 | < 4 | 23 | CC1CCCn2ccc(=O)c3ccc(nc32)-n2c(=O)[nH]c3nccc(c32)O1 (configuration not stated) | –
29 | 1.5 (≈ 0.571 µg/mL) | 0.1 | – | – | – | – | – | – | – | CC1(C)NC(=O)c2ccc3nc2N1CCCCOc1ccnc2[nH]c(=O)n-3c12 | –
30 | 0.9 (≈ 0.314 µg/mL) | 0.2 | – | – | – | – | – | 6 | – | O=c1ccn2c3nc(ccc13)-n1c(=O)[nH]c3nccc(c31)OCCCC2 | –

From ChEMBL document CHEMBL5625263, “Discovery of a novel series of selective macrocyclic PKCTheta inhibitors” (Bioorg Med Chem Lett, 2024)
